# Experimental data published in US20110237495A1, “FUNCTIONAL METABOLOMICS COUPLED MICROFLUIDIC CHEMOTAXIS DEVICE AND IDENTIFICATION OF NOVEL CELL MEDIATORS” (The Brigham and Women's Hospital, Inc. Corporate Sponsored …, priority 2008, published 2011).
# “Also recorded” adds a separate entry of the source.
# How the values were obtained:
# [1] = human plasma; cited from earlier work
# [2] = test system: leukocyte infiltration in lung tissues; assay: Hind-limb ischemia-reperfusion-induced second-organ (lung) injury, lung MPO by ELISA; assay type: in vivo, mice; details: for reduction of lung MPO concentration (FIG. 7D), mean±SEM: 1 μg i.v. 5 min before reperfusion, lungs collected after 2 h reperfusion; for effect on leukocyte (PMN) infiltration / MPO in lung tissue, in words: 1 μg/mouse i.v.
# Experimental: To identify the effects of the resolvins and protectins on inflammation resolution, ischemia-reperfusion induced second-organ injury experiments were designed and are illustrated in FIGS. 7A-D. Mice were anesthetized by intraperitoneal injection of pentobarbital (80 mg kg^−1, Nembutal sodium solution NDC 0074-3778-04). Hind-limb ischemia was initiated using tourniquets consisting of a rubber band placed on each hind limb as in ref.^35. Mice were subjected to hind limb ischemia for 1 h, after which the tourniquets were removed to initiate reflow-reperfusion. Resolvins, related compounds and analogs were each administered at 1 μg/mouse (i.e., DHA, RvD1, RvD1 methyl ester, 17-(R/S)-methyl-RvD1 methyl ester, RvE1, or 19-p-fluorophenoxy-RvE1 methyl ester) in vehicle (5 μl ethanol in 120 μl sterile saline) or vehicle alone. They were administered intravenously to the tail vein ˜5 min before the start of the reperfusion period. At the end of this reperfusion period (2 h), the mice were euthanized with an overdose of anesthetic and the lungs were quickly harvested, frozen in liquid nitrogen, and stored at −80° C. The right lungs were homogenized from individual mice and centrifuged, and the tissue levels of myeloperoxidase (MPO) (a leukocyte marker enzyme) in the resulting supernatants, for each experimental protocol, were determined using a mouse MPO enzyme-linked immunosorbent assay (Hycult biotechnology, Cell Sciences, Uden, The Netherlands).
# Briefly, as illustrated in the time-course shown in FIG. 7A, hind-limb ischemia was induced in mice by creating tourniquets using a rubber band on each hind limb. After 1 h, the tourniquets were removed and reperfusion ensued. Test compounds (1 μg of DHA, RvD1, RvE1) in vehicle were administered intravenously 5 min before the start of the reperfusion period. At the end of the reperfusion period (2 h), lungs were collected and MPO concentrations were determined by ELISA. FIGS. 7B and C are representative images from histological analysis. FIG. 9B is a photomicrograph showing a hematoxylin/eosin-stained lung from ischemia/reperfusion second organ injury (control). […] Mean±SEM (n=3-5, control; n=12).
# Ischemia/reperfusion is a well-appreciated pathophysiologic mechanism of organ injury and local tissue damage that can be initiated by excessively activated PMN. This system in the mouse, models the second organ injury observed in humans following tourniquet release of vessels in surgery involving, for example, extremities^41, 42. Remote or second organ injury can also occur when blood vessels are occluded, or during certain surgical procedures that create local ischemia and remote organ injury that has many features of rapid, acute inflammation and tissue damage^35. On release of the tourniquet occlusion, reflow is initiated and activated PMN rapidly infiltrate secondary organs, causing damage^35. Here, the inventors evaluated RvD1 in a remote organ injury system, i.e., hind-limb ischemia/reperfusion, to assess whether RvD1's ability to inhibit PMN migration, in vitro, in microchambers (FIGS. 8A-C, 9-11) can be predictive of their effect to reduce PMN mediated tissue and organ damage in vivo. […] The extent of lung tissue injury is associated with PMN activation and organ infiltration^35.
# human PMN = assay: Microfluidic chemotaxis device: PMN chemotaxis in IL-8 gradient; assay type: cell-based; details: 10 nM (DHA equimolar), PMN captured on P-selectin from a drop of whole blood, n=12
# Description: A new microvolume chemotaxis device was designed using polyethylene glycol (PEG) that allows testing the chemotactic function of neutrophils and their responses to these novel lipid mediators immediately after being separated from whole blood within the device. One exemplary embodiment of the device is illustrated in FIGS. 8A-C. In this embodiment, the microvolume chemotaxis device with microstructured valves was fabricated using “lab-on-chip” microfabrication technologies^36. Briefly, two silicon wafers were coated with a 50-μm-thick layer of SU8 photoresist (MicroChem, Newton, Mass.). After exposure to UV light through a mylar mask in a mask, aligner and development following manufacturer recommendations, 50 μm-tall features were produced on top of the silicon wafers. Subsequently, poly (dimethylsiloxane) (PDMS, Dow Corning, Midland, Mich.) was prepared by mixing two components in 10:1 ratio, as recommended by the manufacturer. […]
# After assembly, different sections of the device were chemically modified for specific functionalities. […] The surface of the chemotaxis chamber, where neutrophils were captured and assessed for their chemotactic responses, were modified by physical adsorption of P-selectin (10 ng/mL for 30 minutes, R&D Systems, Minneapolis, Minn.) immediately before use. […]
# [3] = test system: peripheral blood monocytes; assay: RANKL-induced differentiation of peripheral blood monocytes into osteoclasts; assay type: cell-based; details: RANKL treatment
# Description: This effect is even more pronounced than for PRP (platelet rich plasma) a recognized inhibitor of osteoclast differentiation. Preparations of 5, 10, 20% PRP are compared with RvE1 were quantified in experiments in which peripheral blood monocytes were induced to differentiate into osteoclasts with RANKL treatment.
# In order to investigate the etiology of resolvins in bone regeneration, the inventors investigated the effect of RvE1 on osteoclast differentiation. In these experiments, peripheral blood monocytes were induced to differentiate into osteoclasts with RANKL treatment.
# [4] = test system: P. gingivalis-induced periodontitis; assay: Rabbit periodontitis induced with Porphyromonas gingivalis, RvE1 topical monotherapy; assay type: in vivo
# Description: The inventors established a small animal model for the evaluation of disease progression and regeneration after treatment using the rabbit as a model induced with periodontitis using Porphyromonas gingivalis. Briefly, ligatures were tied around the second mandibular premolar of rabbits for 6wk to create an environment where the periodontopatogen P. gingivalis could be retained. […] The right panel is the same preparation but with the jaws defleshed to show the bone underneath. […] FIG. 13 sows that the bone loss extends from the crest of the bone to the depth of the infrabony pocket.
# The figures illustrate the new deposition of the cementum (NC) the new periodontal ligament (PL), connective tissue (CT) and bone (B).
# [5] = healthy human subjects; cited from earlier work
# [6] = cited from earlier work
# [7] = Metabolic inactivation of RvE1 by mouse lung tissue; assay type: in vitro ADME
structure (smiles),measurement,setting,value
"CC/C=C\C/C=C\C/C=C\C/C=C\C/C=C\CCCC(=O)O [EPA, [5Z,8Z,11Z,14Z,17Z-icosa-5,8,11,14,17-pentaenoic acid]",half-life,[1],67 h
"CC/C=C\C[C@H](O)/C=C/C=C\C=C\C=C\[C@@H](O)[C@@H](O)C/C=C\CCC(=O)O [RvD1, 7S,8R,17S-trihydroxy-4Z,9E,11E,13Z,15E,19Z-docosahexaenoic acid]","reduction of lung MPO concentration (FIG. 7D), mean±SEM",[2],47.5±2.4
same,reduction of leukocyte infiltration,"[2]; 1 μg/mouse, ischemia/reperfusion injury",~50%
same,effect on PMN migration (chemotaxis) in IL-8 gradient,human PMN,essentially completely stop PMN movements; also recorded: chemotaxis immediately ceased
"CC/C=C\C/C=C\C/C=C\C/C=C\C/C=C\C/C=C\CCC(=O)O [DHA, [4Z,7Z,10Z,13Z,16Z,19Z]-docosa-4,7,10,13,16,19-hexaenoic acid, reference compound]","reduction of lung MPO concentration (FIG. 7D), mean±SEM",[2],0±7.7
same,"effect on leukocyte (PMN) infiltration / MPO in lung tissue, in words",[2],neither DHA nor native RvE1 gave significant reduction
same,effect on PMN migration (chemotaxis) in IL-8 gradient,human PMN,did not stop PMN migration; also recorded: failed to stop neutrophil chemotaxis
same,half-life,[1],20 h
"CC[C@@H](O)/C=C/C=C\C[C@@H](O)/C=C/C=C/C=C\[C@@H](O)CCCC(=O)O [RvE1, 5S,12R,18R-trihydroxy-6Z,8E,10E,14Z,16E-eicosapentaenoic acid]",osteoclast differentiation,"[3]; PRP 5, 10, 20%, P<0.05",significantly inhibited
same,resorption area (FIG. 15),[3]; increasing amounts,significantly decreased
same,"reduction of lung MPO concentration (FIG. 7D), mean±SEM",[2],0±9.3
same,"effect on leukocyte (PMN) infiltration / MPO in lung tissue, in words",[2],inactive
same,bone regeneration compared with healthy controls (FIG. 13),[4]; animals with induced periodontitis treated with RvE1,approximately 80%
same,histology of regenerated periodontium (undecalcified sections),[4]; area of prior periodontal disease,"establishment of new cementum, new fiber attachment and new bone and connective tissue"
same,"RvE1-induced bone regeneration, in words",[4]; p<0.001,to pre-disease levels
CC/C=C\C/C=C\C/C=C\CCCCCCCC(=O)O [α-linolenic acid],extent of conversion to DHA,[5],0.05 to 4.0%
same,proportion converted to EPA,[5],0.20 to 8.0%
CCC(=O)/C=C/C=C\C[C@@H](O)/C=C/C=C/C=C\[C@@H](O)CCCC(=O)O [18-oxo-RvE1],activity of the lung metabolite,[6],devoid of activity
"COC(=O)CCC[C@H](O)\C=C/C=C/C=C/[C@H](O)C/C=C\C=C\[C@@H](O)COc1ccc(F)cc1 [19-p-fluorophenoxy-RvE1-Me, 19-p-fluorophenoxy-RvE1 methyl ester]",metabolic inactivation (conversion to 18-oxo) in mouse lung tissue,[7],prevents this metabolic inactivation
same,"percent reduction of MPO found in lungs (FIG. 11), mean±SEM","[2]; 1 μg i.v. in vehicle, ischemia-reperfusion",19.7 ±7.7%
same,"effect on leukocyte (PMN) infiltration / MPO in lung tissue, in words",[2],significantly reduced leukocyte infiltration
